Laboratory results published in patent US11044937B2, “Solution comprising nicotine in unprotonated form and protonated form” (Nicoventures Holdings Limited, priority 2014, dated 2021).
Read-outs that look alike come from different tables or passages of the source.

Columns and labels:
[1] = on heating in an electronic vapor provision system; compared to many other acids
[2] = Method: The determination of pKa values of nicotine in glycerol/water systems was carried out using the basic approach described in “Spectroscopic investigations into the acid-base properties of nicotine at different temperatures”, Peter M. Clayton, Carl A. Vas, Tam T. T. Bui, Alex F. Drake and Kevin McAdam, Anal. Methods, 2013, 5, 81-88, and summarized below. Because the system is predominately non-aqueous the parameter psKa2 was measured, where subscript s refers to the solvent composition in this largely non-aqueous system, and subscript 2 refers to the pKa value of the pyrrolidyl nitrogen.
Further information on the determination of pKa values of nicotine is provided in “Use of chiroptical spectroscopy to determine the ionisation status of (S)-nicotine in e-cigarette formulations and snus”, Clayton et al, ST 49, CORESTA Congress, Qubec City, Canada, 12-16 Oct. 2014 (available at http://www.bat-science.com/groupms/sites/BAT_9GVJXS.nsf/vwPagesWebLive/DO9PVC3 G/$FILE/CORE STA_PC_2014.pdf).
A range of glycerol/water/nicotine solutions were prepared, with the water concentration fixed at 9%, the nicotine concentration varying from 30 μg/ml to 3 mg/ml; and the glycerol content comprising the remainder of the solutions.
Simultaneous UV & CD spectra of glycerol/s-nicotine/water solutions were measured on the Applied Photophysics Ltd (Leatherhead, UK) Chiracsan Plus spectrometer. The UV absorbance & CD spectra were measured between 300-200 nm region, with various pathlengths depending upon the nicotine concentration of the solution—10 mm, 5 mm, 2 mm, 1 mm, 0.5 mm, 0.1 mm and 0.01 mm pathlengths. The instrument was flushed continuously with pure evaporated nitrogen throughout the measurements. Throughout measurements spectra were recorded with a 0.5 nm step size, a 1 s measurement time-per-point and a spectral bandwidth of 2 nm. Where possible, all CD spectra were smoothed with a window factor of 4 using the Savitzky-Golay method for better presentation.
Solutions of S-Nicotine in glycerol/water were pH titrated at 23° C. The pH of these solutions was raised towards alkaline by adding small aliquots of NaOH (˜pH10) and then lowered to pH2 by adding small aliquots of HCl. A series of 0.1M, 0.5M, 1M, 5M and 10M of HCl and NaOH solutions were used during the pH titration. pHs were measured at 23° C. using a Corning pH105 pH meter with a RMS pH electrode. […] Due to the viscosity of the solutions, and the optical density in the CD spectra of the high nicotine concentration solutions, very small path-length cells were required for nicotine concentrations above 3 mg/ml.

## O=C(O)c1ccccc1 [benzoic acid]
[1]
  level of acid transfer to the aerosol: greater
  production of degradation products: less

## CC(=O)CCC(=O)O [levulinic acid]
[1]
  level of acid transfer to the aerosol: greater

## CN1CCC[C@H]1c1cccnc1 [nicotine, 3-(1-methylpyrrolidin-2-yl) pyridine]
[2]; at 30 mg/ml nicotine concentration, from curve fitting (regression fit to FIG. 1)
  psKa2: 7.26
[2]; nicotine 0.03 g/L (0.185 mM), 9% water, nicotine/glycerol system, 23° C.
  psKa2: 7.49
[2]; nicotine 0.06 g/L (0.370 mM), 9% water, nicotine/glycerol system, 23° C.
  psKa2: 7.34
[2]; nicotine 0.3 g/L (1.85 mM), 9% water, nicotine/glycerol system, 23° C.
  psKa2: 7.30
[2]; nicotine 0.6 g/L (3.70 mM), 9% water, nicotine/glycerol system, 23° C.
  psKa2: 7.27
[2]; nicotine 3 g/L (18.53 mM), 9% water, nicotine/glycerol system, 23° C.
  psKa2: 7.25
